Source: US20070010548A1, “Compounds having inhibitive activity of phosphatidylinositol 3-kinase and methods of use thereof” (ZENTARIS GmbH, priority 2003, published 2007)

Test system: MA-MB-468 cells
Experiment: Three dimensional matrix model of tumor cell growth
Format: cell-based
Details: Homo sapiens, read-out: Percent Inhibition of Tumor Cell Viability
Protocol: PI 3-K inhibitors are assayed for effects on tumor cells grown in three-dimensional matrix that more closely mimics the environment of a tumor than other cell culture models. MA-MB-468 cells are mixed in a matrix solution, such as Matrigel (13D Biosciences) at 2×10 ^6 cells/ml and 100 μl of this mixture added to each well of a 24 well cell culture plate. Each well is 6.5 mm in diameter and 2×10^5 cells are added per well. Once the matrix is solidified, RMPI media containing 10% fetal calf serum and 2 mM L-glutamine is added to each well. After approximately 14 days of culture, the compounds are added to cell media at final concentrations ranging from 10 nM to 100 μM, and the cells are grown in the presence of the compounds for 7 days in RMPI media containing 0.5% fetal calf serum and 20 mM L-glutamine.
Following this treatment, cell growth in the three dimensional matrix can be measured using a cell viability assay such as the CellTiter 96 One Solution Cell Proliferation Assay (Promega, G3582). […] of assay solution is added per well, the cells are incubated for 3 hours. Absorbance at 550 nm is determined for each well and used directly as being equivalent of cell number. In addition, live and dead cells can be distinguished and observed using fluorescence microscopy after staining with Fluorescein diacetate (Sigma), which labels live cells, and propidium iodide (Sigma), which labels dead cells.
The PI 3-K inhibitors of the present invention show anti-proliferative effects in this model of tumor cell growth, as shown by the representative data in Table 6, which compares the anti-proliferative effects of one inhibitor compared to the effects of the benchmark PI 3-K inhibitor LY294002. The PI 3-K inhibitors of the present invention also show enhanced anti-proliferative activity when combined with other cancer drugs, for example paclitaxel or doxorubicin.

For `CC1(C)CC(=O)C2=C(C1)Nc1c(c(C(C)(C)C)nn1C(C)(C)C)C2c1ccc(OCc2ccccc2)c(OCc2ccccc2)c1` (stereo not shown) [Compound 963985], which cytotoxicity at 1 µM (Concentration 1 μM) is on record?
The cytotoxicity at 1 µM was 10%.

What about the cytotoxicity at 5 µM (Concentration 5 μM) of the same compound?
Its cytotoxicity at 5 µM is 20%.

And the cytotoxicity at 10 µM (Concentration 10 μM)?
Its cytotoxicity at 10 µM is 30%.

And the cytotoxicity at 50 µM (Concentration 50 μM)?
The cytotoxicity at 50 µM was 40%.
